Experimental data from patent publication US20060287251A1, “Combination therapy for glycaemic control” (priority 2003, published 2006).

Legend:
[1] = target: T1, Dipeptidyl Peptidase I (cathepsin C) (Rattus norvegicus, UniProt P80067); experiment: Cross reacting enzymes: dipeptidyl peptidase I; type: biochemical; conditions: concentration range 1*10^−5 M-1*10^−7 M
T1 construct: purchased Qiagen GmbH, Hilden, Germany
T1 sequence (P80067 25-462): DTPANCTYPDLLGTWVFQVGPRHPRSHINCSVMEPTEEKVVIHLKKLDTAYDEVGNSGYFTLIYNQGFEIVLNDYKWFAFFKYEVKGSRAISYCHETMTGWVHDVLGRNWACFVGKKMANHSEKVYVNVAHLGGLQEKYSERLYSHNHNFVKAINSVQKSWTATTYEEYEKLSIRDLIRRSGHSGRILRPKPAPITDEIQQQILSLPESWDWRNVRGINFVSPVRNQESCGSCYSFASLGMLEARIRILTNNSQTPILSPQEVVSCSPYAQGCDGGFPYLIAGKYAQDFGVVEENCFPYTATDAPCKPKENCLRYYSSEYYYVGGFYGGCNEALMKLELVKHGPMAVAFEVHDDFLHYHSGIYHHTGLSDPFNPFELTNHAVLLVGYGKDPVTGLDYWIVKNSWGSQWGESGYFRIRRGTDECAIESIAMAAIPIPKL
Procedure: Glutaminyl pyrrolidine or glutaminyl thiazolidine were tested for their cross reacting potency against dipeptidyl peptidase I, prolyl oligopeptidase and prolidase.
DP I or cathepsin C is a lysosomal cysteine protease which cleaves dipeptides from the N-terminus of their substrates (Gutman, H. R. & Fruton, J. S., 1948, J Biol. Chem., 174, 851-858). It is classified as a cysteine protease. The enzyme used was purchased from Qiagen (Qiagen GmbH, Hilden, Germany). In order to get a fully active enzyme, the enzyme was diluted 1000 fold in MES buffer pH5.6 (40 mM MES, 4 mM DTT, 4 mM KCl, 2 mM EDTA, 0.015% Brij) and pre-incubated for 30 min at 30° C. 50 μL glutaminyl pyrrolidine or glutaminyl thiazolidine in a concentration range of 1*10^−5 M-1*10^−7 M were admixed with 110 μL buffer-enzyme-mixture. The assay mixture was pre-incubated at 30° C. for 15 min After pre-incubation, 100 μL histidylseryl-para-nitroanilide (2*10^−5 M) were added and measurement of yellow color development due to para-nitroaniline release was performed at 30° C. and […] for 10 min, using a plate reader (HTS7000 plus, Applied Biosystems, Weiterstadt, Germany). The IC50-values were calculated using Graphit 4.0.15 (Erithacus Software, Ltd., UK). No inhibition of the DP I enzyme activity by glutaminyl pyrrolidine or glutaminyl thiazolidine was found.

[2] = target: T2, dipeptidyl peptidase IV from porcine kidney (Sus scrofa, UniProt P22411); experiment: Ki-determination, DP IV from porcine kidney; type: biochemical; conditions: substrate glycylprolyl-4-nitroaniline, 30 °C, pH 7.6, competitive inhibition
T2 construct: dipeptidyl peptidase IV from porcine kidney with a specific activity against glycylprolyl-4-nitroaniline of 37.5 U/mg; from tissue; host or cells: porcine kidney
T2 sequence (P22411 whole entry): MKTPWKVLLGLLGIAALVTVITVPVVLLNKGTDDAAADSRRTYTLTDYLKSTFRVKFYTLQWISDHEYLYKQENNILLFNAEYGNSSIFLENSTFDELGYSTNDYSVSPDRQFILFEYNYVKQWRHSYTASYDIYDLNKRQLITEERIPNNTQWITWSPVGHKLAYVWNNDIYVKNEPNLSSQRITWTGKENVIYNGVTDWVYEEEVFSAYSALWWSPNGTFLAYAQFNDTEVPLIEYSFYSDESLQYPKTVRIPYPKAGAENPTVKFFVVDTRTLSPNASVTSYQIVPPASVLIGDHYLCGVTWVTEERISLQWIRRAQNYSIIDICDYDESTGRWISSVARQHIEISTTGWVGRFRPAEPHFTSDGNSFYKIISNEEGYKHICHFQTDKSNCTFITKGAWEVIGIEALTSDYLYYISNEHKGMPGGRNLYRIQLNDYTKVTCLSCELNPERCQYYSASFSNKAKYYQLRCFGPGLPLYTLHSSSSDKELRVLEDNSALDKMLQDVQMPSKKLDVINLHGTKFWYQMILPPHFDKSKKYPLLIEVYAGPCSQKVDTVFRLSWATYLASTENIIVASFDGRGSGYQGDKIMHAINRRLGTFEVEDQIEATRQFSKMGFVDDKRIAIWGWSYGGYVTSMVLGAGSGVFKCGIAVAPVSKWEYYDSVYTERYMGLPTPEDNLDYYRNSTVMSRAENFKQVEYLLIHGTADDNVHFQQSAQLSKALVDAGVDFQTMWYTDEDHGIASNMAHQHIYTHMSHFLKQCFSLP
Procedure: For Kidetermination of glutaminyl pyrrolidine and glutaminyl thiazolidine, dipeptidyl peptidase IV from porcine kidney with a specific activity against glycylprolyl-4-nitroaniline of 37.5 U/mg and an enzyme concentration of 1.41 mg/mL in the stock solution was used.
100 μL glutaminyl pyrrolidine or glutaminyl thiazolidine in a concentration range of 1*10^−5 -1*10^−7 M (glutaminyl pyrrolidine) and 1*10^−6 M-1*10^−8 M (glutaminyl thiazolidine) respectively were admixed with 50 μL glycylprolyl-4-nitroaniline in different concentrations (0.4 mM, 0.2 mM, 0.1 mM, 0,05 mM) and 100 μl HEPES (40 mM, pH7.6; ion strength=0.125). The assay mixture was pre-incubated at 30 ° C. for 30 min. After pre-incubation, 20 μL DPIV (1:600 diluted) were added and measurement of yellow color development due to 4-nitroaniline release was performed at 30° C. and λ=405 nm for 10 min using a plate reader (HTS7000 plus, Applied Biosystems, Weiterstadt, Germany). The Ki-values were calculated using Graphit 4.0.15 (Erithacus Software, Ltd, UK) based on a competitive inhibition of DPIV by glutaminyl pyrrolidine or glutaminyl thiazolidine.

SMILES	inhibition of the DP I enzyme activity [1]	Ki [2] [nM]
NC(=O)CC[C@H](N)C(=O)N1CCCC1 [glutaminyl pyrrolidine]	No inhibition	1300
NC(=O)CC[C@H](N)C(=O)N1CCSC1 [glutaminyl thiazolidine]	No inhibition	312
